# The source made the active and inactive calls. How the calls were made is not given here.
# Molecular target: Peptidyl-prolyl cis-trans isomerase FKBP1A (Homo sapiens) (UniProt P62942)
# Test: FKBP12 binders, biophysical, NMR detection (AID 608)
# Details: NMR binding, purified FKBP12
# Peptidyl-prolyl cis-trans isomerase FKBP1A (Homo sapiens), sequence (P62942 whole entry, looked up): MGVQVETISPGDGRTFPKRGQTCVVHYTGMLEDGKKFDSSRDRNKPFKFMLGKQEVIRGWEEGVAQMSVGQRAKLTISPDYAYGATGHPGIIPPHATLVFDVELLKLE
row,SMILES,Kd
1,CCC(=O)NC(=S)Nc1ccc(N2CCOCC2)cc1,> 4 mM (inactive)
2,Cn1nc(C(=O)NC2CCCCC2)c2ccccc2c1=O,> 4 mM (inactive)
3,N/N=C1\CCCc2c1no[n+]2[O-],> 4 mM (inactive)
4,O=C1CSC(=Nc2ccccc2)N1,> 4 mM (inactive)
5,Cc1ccc(OCC(=O)N2CCOCC2)c(C)c1,inactive
6,O=C(O)CCc1nc2ccccc2[nH]c1=O,> 4 mM (inactive)
7,CC(=O)NC(C)(C)C1CC=C(C)/C(=N\O)C1 (stereo unspecified),> 4 mM (inactive)
8,Cc1cc(C)cc(C(=O)N2CCC(C(N)=O)CC2)c1,> 4 mM (inactive)
9,COc1ccc2c(c1)OCC(Cc1ccc(OC)c(OC(C)=O)c1)C2=O (stereo unspecified),> 4 mM (inactive)
10,O=C(O)c1ccc2c(c1)CCO2,> 4 mM (inactive)
11,CCOC(=O)C1=C(O)CCN(C)C1,> 4 mM (inactive)
12,COc1cc(C(=S)N2CCC(C(N)=O)CC2)ccc1O,> 4 mM (inactive)
13,C=C1C2=CC(=O)O[C@@H](c3ccoc3)[C@]2(C)CCC1[C@@]1(C)C=CC(=O)C(C)(C)[C@@H]1CC(=O)OC (stereo partly specified),> 4 mM (inactive)
14,CCn1c(C)c(C(C)=O)c(N2CCN(C)CC2)nc1=S,> 4 mM (inactive)
15,Cc1noc(C)c1C(=O)Nc1cccnc1,> 4 mM (inactive)
16,COc1ccc2nc(NC(=O)c3cnccn3)sc2c1,> 4 mM (inactive)
17,CS(=O)(=O)Nc1ccccc1C(=O)c1ccccc1,> 4 mM (inactive)
18,OCc1ccccc1O[C@@H]1O[C@H](CO)[C@@H](O)[C@H](O)[C@H]1O,> 4 mM (inactive)
19,Cc1ccc(N)nc1,> 4 mM (inactive)
20,Nc1c(F)c(F)nc(F)c1F,> 4 mM (inactive)
21,O=C(Nc1cccnc1)c1c(F)c(F)c(F)c(F)c1F,> 4 mM (inactive)
22,O=C1CS/C(=N/N=C2CCCC2)N1,> 4 mM (inactive)
23,NS(=O)(=O)c1ccccc1Cl,> 4 mM (inactive)
24,NC(=O)Cn1cnc2ccccc21,> 4 mM (inactive)
25,O=C1C2C3CCC(O3)C2C(=O)N1c1cccc(F)c1 (stereo unspecified),> 4 mM (inactive)

row,SMILES,Kd
1,COc1cc([C@@H]2c3cc4c(cc3C(OC3O[C@@H]5COC(C)O[C@H]5[C@H](O)[C@H]3O)C3COC(=O)[C@@H]32)OCO4)cc(OC)c1O (stereo partly specified),> 4 mM (inactive)
2,Cc1nnc2ccc(N3CCCC3)nn12,> 4 mM (inactive)
3,Cc1ccc(SCc2nc(-c3ccncc3)no2)cc1,inactive
4,COc1ccc(C2(C)NC(=O)NC2=O)cc1 (stereo unspecified),> 4 mM (inactive)
5,N[C@@H](Cc1ccc(O)c(O)c1)C(=O)O,> 4 mM (inactive)
6,Cc1cc(C(=O)Nc2cccnc2)cs1,> 4 mM (inactive)
7,Brc1cccc(-c2nnco2)c1,> 4 mM (inactive)
8,CN(C)N1C(=O)c2ccccc2C1=O,> 4 mM (inactive)
9,c1ccc(Cc2nnc(-c3ccccc3)o2)cc1,> 4 mM (inactive)
10,Cc1cc(C)n(-c2nncn2N)n1,> 4 mM (inactive)
11,CCOC(=O)c1c(C)nc2c(C#N)cnn2c1C,> 4 mM (inactive)
12,c1coc(CNc2ncnc3nc[nH]c23)c1,> 4 mM (inactive)
13,O=C(NCc1n[nH]c(=O)c2ccccc12)C1CC1,> 4 mM (inactive)
14,[O-][n+]1onc2c1CCc1c-2nc(-c2ccccc2)n1O,> 4 mM (inactive)
15,Cc1nc(-c2ccc(CO)s2)cs1,> 4 mM (inactive)
16,OCc1ccc(-c2cccs2)s1,> 4 mM (inactive)
17,CC(=O)c1cnc2nc(C(F)(F)F)nn2c1C,> 4 mM (inactive)
18,COc1cc(C(C)=O)cc(OC)c1O,> 4 mM (inactive)
19,COc1ccc2c(c1)=C(c1sc(N)nc1O)C(=O)N=2,> 4 mM (inactive)
20,CC(=O)OCC(OC(C)=O)C(OC(C)=O)C(OC(C)=O)C(OC(C)=O)C(COC(C)=O)OC(C)=O (stereo unspecified),> 4 mM (inactive)
21,O=c1c(Cl)c(NCCO)ncn1-c1ccccc1,> 4 mM (inactive)
22,Cc1cc(C)c(C(N)=O)c(=S)[nH]1,> 4 mM (inactive)
23,COc1cccc(N2CCN(C(=O)c3cccnc3)CC2)c1,> 4 mM (inactive)
24,O=C1C2CCCCC2C(=O)N1c1ccc(O)cc1 (stereo unspecified),> 4 mM (inactive)
25,NC1=C(c2ccccc2)C(=O)c2ccccc21,> 4 mM (inactive)

row,SMILES,Kd
1,CN1CCOc2cc(C(=O)O)ccc21,> 4 mM (inactive)
2,C=C1C2CC[C@@]3(C)[C@H](c4ccoc4)OC(=O)C[C@]13O[C@H]1C[C@H](OC(C)=O)C(C)(C)[C@H](CC(=O)OC)[C@@]21C,> 4 mM (inactive)
3,CC(=O)N=c1cccc(NC(C)=O)n1O,> 4 mM (inactive)
4,Cn1c(SCC(N)=O)nc2ccccc2c1=O,> 4 mM (inactive)
5,Cc1cc(/C=N/O)nc(=O)[nH]1,> 4 mM (inactive)
6,CN1CCN(CC(=O)N2CCc3ccccc32)CC1,> 4 mM (inactive)
7,O=c1[nH]nc(Cc2ccncc2)c2ccccc12,> 4 mM (inactive)
8,Cc1ccc2c(c1)=C(c1sc(N)nc1O)C(=O)N=2,> 4 mM (inactive)
9,CC(=O)Nc1ccncc1NC(C)=O,> 4 mM (inactive)
10,O=C(NCc1cccc(Cl)c1)c1cccnc1,> 4 mM (inactive)
11,Cc1ccccc1-n1c(-c2cccnc2)n[nH]c1=S,> 4 mM (inactive)
12,OCc1ccc(N2CCOCC2)cc1,> 4 mM (inactive)
13,c1ccc(CSc2ncccn2)cc1,> 4 mM (inactive)
14,C[C@]12CCC3C(CC[C@H]4C[C@@H](O)CC[C@]34C)C1CCC2=O (stereo partly specified),> 4 mM (inactive)
15,Nc1ccc2c(c1)COc1ccccc1O2,> 4 mM (inactive)
16,CC(=O)Nn1cc2c(=O)n(C)c(=O)n(C)c2c1,> 4 mM (inactive)
17,COc1ccc(-c2coc3c(OC)c(OC)cc(OC)c3c2=O)cc1,> 4 mM (inactive)
18,Cc1nn(-c2ccccc2C(=O)O)c(=O)c2ccccc12,> 4 mM (inactive)
19,Clc1ncc2[nH]cnc2n1,> 4 mM (inactive)
20,O=C1CCCN1c1ccc(S(=O)O)cc1,> 4 mM (inactive)
21,CSc1nn(-c2ccccc2)c(N)c1C#N,> 4 mM (inactive)
22,O=C(CSc1ccccc1)N1CCC2(CC1)OCCO2,> 4 mM (inactive)
23,Cn1nc(C(=O)Nc2cccnc2)c2ccccc2c1=O,> 4 mM (inactive)
24,Cc1occc(=O)c1O,> 4 mM (inactive)
25,CC(C)c1nnc(N)s1,> 4 mM (inactive)

row,SMILES,Kd
1,COc1cc2c(cc1NS(=O)(=O)N1CCCCC1)oc1ccccc12,> 4 mM (inactive)
2,CN(C)C(=S)Nc1ccc([N+](=O)[O-])cc1,> 4 mM (inactive)
3,O=C(O)c1cccnc1Oc1ccccc1,> 4 mM (inactive)
4,O=c1cc(-c2ccc(O)cc2)oc2cc(O[C@@H]3O[C@H](CO)[C@@H](O)[C@H](O)[C@H]3O[C@@H]3OC[C@](O)(CO)[C@H]3O)cc(O)c12,> 4 mM (inactive)
5,O=C(Nc1ncccn1)c1cccc(F)c1,> 4 mM (inactive)
6,NC(=O)C1CCN(Cc2ccccc2)CC1,> 4 mM (inactive)
7,S=C(NCc1cccnc1)NC1CC1,> 4 mM (inactive)
8,OCC1CCN(c2ncccn2)CC1,> 4 mM (inactive)
9,O=C1NC(=S)S/C1=C/c1ccncc1,> 4 mM (inactive)
10,CN(C)c1ccc(CNn2cnnc2)cc1,> 4 mM (inactive)
11,O=C(O)CSCc1c(F)cccc1Cl,> 4 mM (inactive)
12,Cc1sc2nc(SCC(=O)N(C)C)[nH]c(=O)c2c1C,> 4 mM (inactive)
13,N[C@@H](Cc1cc(I)c(Oc2cc(I)c(O)c(I)c2)c(I)c1)C(=O)O,> 4 mM (inactive)
14,COc1c(O)cc2c(-c3ccccc3)cc(=O)oc2c1OC,> 4 mM (inactive)
15,Nc1cccc(-n2cnnn2)c1,> 4 mM (inactive)
16,OC[C@H]1O[C@@H](Oc2ccc(O)cc2)[C@H](O)[C@@H](O)[C@@H]1O,> 4 mM (inactive)
17,Cc1noc(C)c1C(=O)N1CCC2(CC1)OCCO2,> 4 mM (inactive)
18,O=C(O)C1CC(=O)N(Cc2ccco2)C1 (stereo unspecified),> 4 mM (inactive)
19,O=C1C2C3C=CC(C3)C2C(=O)N1c1ccccn1 (stereo unspecified),> 4 mM (inactive)
20,O=c1[nH]nnc2sc3c(c12)CCCC3,> 4 mM (inactive)
21,Cc1cc(C(=O)O)n[nH]1,> 4 mM (inactive)
22,CC(=O)c1c(C)nc(-c2ccc(F)cc2)n1O,> 4 mM (inactive)
23,CC(CCC(=O)O)[C@H]1CCC2C3CC[C@@H]4C[C@H](O)CC[C@]4(C)C3CC[C@@]21C (stereo partly specified),> 4 mM (inactive)
24,O=C(c1cc2ccccc2o1)N1CCCCCC1,0.184 mM
25,O=C1c2ccccc2C(=O)c2c1ccc(O)c2O,> 4 mM (inactive)

row,SMILES,Kd
1,COC(=O)c1noc(-c2ccc(OC)cc2)n1,> 4 mM (inactive)
2,CC1(c2ccncc2)NC(=O)NC1=O (stereo unspecified),> 4 mM (inactive)
3,O=C(Nn1cnnc1)c1ccccc1Cl,> 4 mM (inactive)
4,O=S1(=O)CCC(Nc2ccccc2)C1 (stereo unspecified),> 4 mM (inactive)
5,NC1Cc2ccccc2C1,> 4 mM (inactive)
6,CSc1nnc(CN2CCSCC2)n1C,> 4 mM (inactive)
7,CN1C(=O)c2ccc(N3CCCC3)cc2C1=O,> 4 mM (inactive)
8,O=c1ccc(=O)n(CN2CCc3ccccc3C2)[nH]1,> 4 mM (inactive)
9,CN1C(=O)/C(=C\c2ccc[nH]2)SC1=S,> 4 mM (inactive)
10,CS(=O)(=O)N1CCN(c2ccccc2F)CC1,> 4 mM (inactive)
11,O=c1c2c(nc3nc(COc4ccccc4)[nH]n13)CCC2,> 4 mM (inactive)
12,O=C(c1cc(-c2ccccc2)on1)N1CCCC1,> 4 mM (inactive)
13,Cc1ccc(NS(=O)(=O)N2CCOCC2)cc1Cl,inactive
14,CC(C)c1ccc(SCC(=O)N2CCOCC2C(=O)OCCCc2cccnc2)cc1 (stereo unspecified),0.0056 mM
15,c1ccc2c(NC3=NCCS3)cccc2c1,> 4 mM (inactive)
16,Nc1ncnc(NCCCO)c1[N+](=O)[O-],> 4 mM (inactive)
17,CC(=O)NCC1OCCc2ccccc21 (stereo unspecified),> 4 mM (inactive)
18,CC1O[C@@H](Oc2c(-c3ccc(O)c(O)c3)oc3cc(O)cc(O)c3c2=O)[C@H](O)[C@H](O)[C@H]1O (stereo partly specified),> 4 mM (inactive)
19,Cn1nnc2c(N3CCC(C(N)=O)CC3)ncnc21,> 4 mM (inactive)
20,O=c1cnnc(SCCc2ccccc2)[nH]1,> 4 mM (inactive)
21,CC(=O)Nc1nnc(-c2ccccc2)o1,> 4 mM (inactive)

# From PubChem BioAssay AID608 (Sanford-Burnham Center for Chemical Genomics, 2007)
